Converted amounts (≈) assume the structure as drawn. Marks after values point to notes of the source that are not given here. Non-standard residues stand in square brackets, D forms with d. Residues, ends and D or L forms follow the SMILES beside them. PEG2000 = polyethylene glycol 2000, conjugated to the N-terminus; PEG4000 = polyethylene glycol 4000, conjugated to the C-terminus; PEG200 = polyethylene glycol 200, conjugated to the C-terminus; PEG500 = polyethylene glycol 500, conjugated to the C-terminus; Phe(3,4-F2) = N[C@@H](Cc1ccc(F)c(F)c1)C(=O)O; Phe(4-Br) = N[C@@H](Cc1ccc(Br)cc1)C(=O)O; 2Nal = N[C@@H](Cc1ccc2ccccc2c1)C(=O)O; PEG1000 = polyethylene glycol 1000; hLeu = CC(C)CC[C@H](N)C(=O)O
Key:
[1] = tested on: Staphylococcus aureus (NRS 384); experiment: microbe, parasite or virus in culture; assay type: cell-based
Text: According to the Standards of Clinical and Laboratory Standards Institute (CLSI) of the USA for antimicrobial drug susceptibility test operation standards, a micronutrient serial twofold dilution method was used to determine minimum inhibitory concentrations (MICs) of all 60 peptides (S/N: LV-1˜LV-60) against Staphylococcus aureus (NRS 384). The experiment was repeated 5 times in parallel. […] An antibacterial drug Levofloxacin and an AMP Cbf-K16 (sequence of Cbf-K16: […]) were used as positive controls to evaluate the antibacterial effect of the antimicrobial peptides on Staphylococcus aureus (NRS 384).

[2] = tested on: rabbit red blood cells; assay type: cell-based; conditions: red cells of rabbit, 1 h
Experimental: Fresh rabbit blood ([…]) was collected and centrifuged at 500 g for 5 min, a supernatant was discarded, and red blood cells were repeatedly washed with phosphate-buffered saline (PBS, 0.01 M, pH 7.4) until the supernatant was clear. The red blood cells (RBCs) were resuspended to 10 mL, and diluted 25-fold with PBS (0.01 M, pH 7.4) to prepare a red blood cell suspension with a concentration of about 2×10^8 RBC/mL. The AMPs were subjected to gradient dilution with normal saline (0.85%, w/v, NaCl) according to a multiple dilution method, final concentrations of the SMPs were 1.95, 3.9, 7.8, 15.6, 31.3, 62.5, 125, 250, 500, 1000, and 2000 μg/mL. 100 μl of polypeptide solution was taken and added to a 96-well plate with 5 replicates for each concentration; 100 μl of rabbit blood with a red blood cell count of about 2×10^8 RBC/mL was then added to each well, the plate was incubated at 37° C. for 1 h, centrifuged at 500 g for 5 min, 100 μl of supernatant was taken and transferred to a new 96-well plate, and an optical density (OD) at a wavelength of 541 nm was measured using a microplate reader. Triton X-100 (10 mg/mL as a starting concentration, two-fold gradient dilution) was used as a positive control group. A hemolysis rate was calculated using the following formula: Hemolysis rate (%)=[(OD541 of experimental group-OD541 of negative control group)/(OD541 of positive control group−OD541 of negative control group)]×100% Specific results of the hemolysis test are shown in Table 6. Minimum hemolytic concentration (MHC): a lowest drug concentration that can cause 10% hemolysis.

[3] = tested on: Pseudomonas aeruginosa ATCC 27853; experiment: Injectable formulations on mice infected with peritonitis; assay type: in vivo, ICR mice; conditions: 5 mg/kg via tail vein, twice a day for 3 days, n = 10
Experimental: Both female and male ICR mice were used in the test, half of the female and male mice were taken and randomly assigned into groups, with 10 mice in each group, and kept in separate cages. The mice were divided into a blank control group, a negative control group, a positive control Levofloxacin group, and AMPs LV-1 to LV-30 groups. A bacterial suspension of Pseudomonas aeruginosa ATCC 27853 was prepared, a concentration of the suspension was adjusted 1×10^9 CFU/mL for subsequent use. Except for the blank control group, all other mice were injected with the bacterial suspension (0.2 mL, 1×10^9 CFU/mL), into abdominal cavity of the mice, to establish a model. After the model was successfully established, the mice were given drug immediately according to their body weights. Except for the blank control group and the negative control group, the mice in all other groups were administered the corresponding injectable formulations via tail vein, twice a day for 3 consecutive days. The mice were then observed for 14 d. The death of mice in each group was observed, and survival time of the mice was recorded. Results of the effect of the injectable formulations of AMPs LV-1 to LV-30 on the survival time of mice infected with Pseudomonas aeruginosa are shown in Table 10.

[4] = tested on: Escherichia coli ATCC 25922; experiment: Oral formulations on mice with systemic bacterial infection; assay type: in vivo, ICR mice; conditions: 5 mg/kg gavage, three times a day for 7 days, n = 10
Experimental: Both female and male ICR mice were used in the test, half of the female and male mice were taken and randomly assigned into groups, with 10 mice in each group, and kept in separate cages. The mice were divided into a blank control group, a negative control group, a positive control Levofloxacin group, and AMPs LV-1 to LV-30 groups. An Escherichia coli ATCC 25922 bacterial suspension was prepared, a concentration of the suspension was adjusted 1×10^7 CFU/mL for subsequent use. Except for the blank control group, all other mice were injected with the Escherichia coli suspension (0.2 mL, 1×10^7 CFU/mL), into abdominal cavity of the mice, to establish a model. After the model was successfully established, the mice were given drug immediately according to their body weights. Except for the blank control group and the negative control group, the mice in all other groups were gavaged with different compounds, three times a day for 7 consecutive days. The mice were then observed for 14 d. The death of mice in each group was observed, and survival time of the mice was recorded. Results of the effect of the oral formulations of AMPs LV-1 to LV-30 on the survival time of mice infected with Escherichia coli are shown in Table 11.

[5] = Staphylococcus aureus (NRS 384)

CC(=O)N[C@@H](CCCCN)C(=O)N[C@@H](CCCNC(=N)N)C(=O)N[C@@H](CC(C)C)C(=O)N[C@@H](CC(C)C)C(=O)N[C@@H](Cc1ccc2ccccc2c1)C(=O)N[C@@H](CCCCN)C(=O)N[C@@H](CC(C)C)C(=O)N[C@@H](CCCCN)C(=O)N[C@@H](Cc1ccc2ccccc2c1)C(=O)N[C@@H](CCCCN)C(=O)N[C@@H](CCCNC(=N)N)C(N)=O [LV-53] (Ac-KRLL[2Nal]KLK[2Nal]KR-NH2)
MIC against Staphylococcus aureus (NRS 384) ([1]; NRS 384): 4 µg/mL (≈ 2.47 µM)
MHC (minimum hemolytic concentration, lowest concentration causing 10% hemolysis) [2]: >1000 µg/mL

PEG2000-RKLLXRLKXRK-NH2 [LV-59] (PEG2000-RKLL[2Nal]RLK[2Nal]RK-NH2) [polyethylene glycol 2000 conjugated to N-terminal; X=3-(2-naphthyl)-alanine]
MIC against Staphylococcus aureus (NRS 384) [1, 5]: 4 µg/mL

Ac-RKLLXRLKXRK-PEG500 [LV-57] (Ac-RKLL[2Nal]RLK[2Nal]RK-PEG500) [polyethylene glycol 500 conjugated to C-terminal; X=3-(2-naphthyl)-alanine]
MIC against Staphylococcus aureus (NRS 384) [1, 5]: 8 µg/mL

Ac-RKLLXRLKXRK-PEG4000 [LV-60] (Ac-RKLL[2Nal]RLK[2Nal]RK-PEG4000) [polyethylene glycol 4000 conjugated to C-terminal; X=3-(2-naphthyl)-alanine]
MIC against Staphylococcus aureus (NRS 384) [1, 5]: 8 µg/mL

CC(=O)N[C@@H](CCCNC(=N)N)C(=O)N[C@@H](CCCCN)C(=O)N[C@@H](CC(C)C)C(=O)N[C@@H](CC(C)C)C(=O)N[C@@H](Cc1ccc2ccccc2c1)C(=O)N[C@@H](CCCCN)C(=O)N[C@@H](CC(C)C)C(=O)N[C@@H](CCCCN)C(=O)N[C@@H](Cc1ccc2ccccc2c1)C(=O)N[C@@H](CCCCN)C(=O)N[C@@H](CCCNC(=N)N)C(N)=O [LV-48] (Ac-RKLL[2Nal]KLK[2Nal]KR-NH2)
MIC against Staphylococcus aureus (NRS 384) ([1]; NRS 384): 4 µg/mL (≈ 2.47 µM)
MHC (minimum hemolytic concentration, lowest concentration causing 10% hemolysis) [2]: >1000 µg/mL

CC(=O)N[C@@H](CCCCN)C(=O)N[C@@H](CCCCN)C(=O)N[C@@H](CC(C)C)C(=O)N[C@@H](CC(C)C)C(=O)N[C@@H](Cc1ccc(F)c(F)c1)C(=O)N[C@@H](CCCNC(=N)N)C(=O)N[C@@H](CC(C)C)C(=O)N[C@@H](CCCCN)C(=O)N[C@@H](Cc1ccc(F)c(F)c1)C(=O)N[C@@H](CCCNC(=N)N)C(=O)N[C@@H](CCCCN)C(N)=O [LV-55] (Ac-KKLL[Phe(3,4-F2)]RLK[Phe(3,4-F2)]RK-NH2)
MIC against Staphylococcus aureus (NRS 384) ([1]; NRS 384): 4 µg/mL (≈ 2.52 µM)
MHC (minimum hemolytic concentration, lowest concentration causing 10% hemolysis) [2]: >1000 µg/mL

CC(=O)N[C@@H](CCCNC(=N)N)C(=O)N[C@@H](CCCCN)C(=O)N[C@@H](CCC(C)C)C(=O)N[C@@H](CCC(C)C)C(=O)N[C@@H](Cc1ccc2ccccc2c1)C(=O)N[C@@H](CCCNC(=N)N)C(=O)N[C@@H](CCC(C)C)C(=O)N[C@@H](CCCCN)C(=O)N[C@@H](Cc1ccc2ccccc2c1)C(=O)N[C@@H](CCCNC(=N)N)C(=O)N[C@@H](CCCCN)C(N)=O [LV-44] (Ac-RK[hLeu][hLeu][2Nal]R[hLeu]K[2Nal]RK-NH2)
MIC against Staphylococcus aureus (NRS 384) ([1]; NRS 384): 8 µg/mL (≈ 4.74 µM)
MHC (minimum hemolytic concentration, lowest concentration causing 10% hemolysis) [2]: >1000 µg/mL

CC(=O)N[C@@H](CCCNC(=N)N)C(=O)N[C@@H](CCCCN)C(=O)N[C@@H](CC(C)C)C(=O)N[C@@H](CC(C)C)C(=O)N[C@@H](Cc1ccc2ccccc2c1)C(=O)N[C@@H](CCCNC(=N)N)C(=O)N[C@@H](CC(C)C)C(=O)N[C@@H](CCCCN)C(=O)N[C@@H](Cc1ccc2ccccc2c1)C(=O)N[C@@H](CCCNC(=N)N)C(=O)N[C@@H](CCCCN)C(N)=O [LV-50] (Ac-RKLL[2Nal]RLK[2Nal]RK-NH2)
MIC against Staphylococcus aureus (NRS 384) ([1]; NRS 384): 4 µg/mL (≈ 2.43 µM)
MHC (minimum hemolytic concentration, lowest concentration causing 10% hemolysis) [2]: >1000 µg/mL

CC(=O)N[C@@H](CCCCN)C(=O)N[C@@H](CCCCN)C(=O)N[C@@H](CC(C)C)C(=O)N[C@@H](CC(C)C)C(=O)N[C@@H](Cc1ccc2ccccc2c1)C(=O)N[C@@H](CCCCN)C(=O)N[C@@H](CC(C)C)C(=O)N[C@@H](CCCCN)C(=O)N[C@@H](Cc1ccc2ccccc2c1)C(=O)N[C@@H](CCCCN)C(=O)N[C@@H](CCCCN)C(N)=O [LV-47] (Ac-KKLL[2Nal]KLK[2Nal]KK-NH2)
MIC against Staphylococcus aureus (NRS 384) ([1]; NRS 384): 2 µg/mL (≈ 1.28 µM)
MHC (minimum hemolytic concentration, lowest concentration causing 10% hemolysis) [2]: >1000 µg/mL

CC(=O)N[C@@H](CCCNC(=N)N)C(=O)N[C@@H](CCCNC(=N)N)C(=O)N[C@@H](CC(C)C)C(=O)N[C@@H](CC(C)C)C(=O)N[C@@H](Cc1ccc2ccccc2c1)C(=O)N[C@@H](CCCNC(=N)N)C(=O)N[C@@H](CC(C)C)C(=O)N[C@@H](CCCCN)C(=O)N[C@@H](Cc1ccc2ccccc2c1)C(=O)N[C@@H](CCCNC(=N)N)C(=O)N[C@@H](CCCCN)C(N)=O [LV-51] (Ac-RRLL[2Nal]RLK[2Nal]RK-NH2)
MIC against Staphylococcus aureus (NRS 384) ([1]; NRS 384): 4 µg/mL (≈ 2.39 µM)
MHC (minimum hemolytic concentration, lowest concentration causing 10% hemolysis) [2]: >1000 µg/mL

CC(=O)N[C@@H](CCCCN)C(=O)N[C@@H](CCCCN)C(=O)N[C@@H](CC(C)C)C(=O)N[C@@H](CC(C)C)C(=O)N[C@@H](Cc1ccc(Br)cc1)C(=O)N[C@@H](CCCNC(=N)N)C(=O)N[C@@H](CC(C)C)C(=O)N[C@@H](CCCCN)C(=O)N[C@@H](Cc1ccc(Br)cc1)C(=O)N[C@@H](CCCNC(=N)N)C(=O)N[C@@H](CCCCN)C(N)=O [LV-40] (Ac-KKLL[Phe(4-Br)]RLK[Phe(4-Br)]RK-NH2)
MIC against Staphylococcus aureus (NRS 384) ([1]; NRS 384): 4 µg/mL (≈ 2.39 µM)
MHC (minimum hemolytic concentration, lowest concentration causing 10% hemolysis) [2]: >1000 µg/mL

C[C@H]1COc2c(N3CCN(C)CC3)c(F)cc3c(=O)c(C(=O)O)cn1c23 [Levofloxacin, reference compound]
MIC ([1]; Staphylococcus aureus (NRS 384), read-out: MIC against Staphylococcus aureus (NRS 384)): 1 µg/mL (≈ 2.77 µM)
Number of mice that died on each day after infection: day 1 [3]: 3 Mouse
Number of mice that died on each day after infection: day 2 [3]: 1 Mouse
Number of mice that died on each day after infection: day 3 [3]: 1 Mouse
Number of mice that died on each day after infection: day 4 [3]: 1 Mouse
Number of mice that died on each day after infection: day 5 [3]: 1 Mouse
Average survival times (Days) ([3]; observed for 14 d): 5.9* Days
Number of mice that died on each day after infection: day 4 [4]: 2 Mouse
Number of mice that died on each day after infection: day 5 [4]: 2 Mouse
Number of mice that died on each day after infection: day 6 [4]: 1 Mouse
Number of mice that died on each day after infection: day 7 [4]: 1 Mouse
Number of mice that died on each day after infection: day 8 [4]: 1 Mouse
Average survival times (Days) ([4]; observed for 14 d): 8.1* Days

Ac-RKLLXRLKXRK-PEG200 [LV-56] (Ac-RKLL[2Nal]RLK[2Nal]RK-PEG200) [polyethylene glycol 200 conjugated to C-terminal; X=3-(2-naphthyl)-alanine]
MIC against Staphylococcus aureus (NRS 384) [1, 5]: 4 µg/mL

Ac-RKLLXRLKXRK-PEG1000 [LV-58] (Ac-RKLL[2Nal]RLK[2Nal]RK-PEG1000) [polyethylene glycol 1000 conjugated to C-terminal; X=3-(2-naphthyl)-alanine]
MIC against Staphylococcus aureus (NRS 384) [1, 5]: 4 µg/mL
